Measurements published in PubChem BioAssay AID1259407 (Chemical Carcinogenesis Research Information System (CCRIS), 2018).
Activity calls are given as the source filed them. No rule for the calls is given here.

Tested on: CCRIS mutagenicity, Ames/micronucleus/aberration tests
Assay: CCRIS mutagenicity studies
[1] = Test System: AMES SALMONELLA TYPHIMURIUM, Strain/Indicator: TA100, Metabolic Activation: NONE, Method: STANDARD PLATE
[2] = Test System: AMES SALMONELLA TYPHIMURIUM, Strain/Indicator: TA100, Metabolic Activation: NONE, Method: PREINCUBATION
[3] = Test System: AMES SALMONELLA TYPHIMURIUM, Strain/Indicator: TA1537, Metabolic Activation: NONE, Method: STANDARD PLATE
[4] = Test System: AMES SALMONELLA TYPHIMURIUM, Strain/Indicator: TA98, Metabolic Activation: RAT, LIVER, S-9, AROCLOR, Method: PREINCUBATION
[5] = Test System: AMES SALMONELLA TYPHIMURIUM, Strain/Indicator: TA98, Metabolic Activation: NONE, Method: PREINCUBATION

Cc1ccc([N+]#N)cc1 was tested, and the mutagenic call [1] was “active; positive”, the mutagenic call (Test System: AMES SALMONELLA TYPHIMURIUM, Strain/Indicator: TA102, Metabolic Activation: NONE, Method: STANDARD PLATE) was “active; positive” and the mutagenic call (Test System: CHINESE HAMSTER V-79, Strain/Indicator: V-79/6-THIOGUANINE, Metabolic Activation: NONE) was “active; positive”.
For C=C(C=O)CC, the mutagenic call [2] was “active; positive”, the mutagenic call (Test System: AMES SALMONELLA TYPHIMURIUM, Strain/Indicator: TA100, Metabolic Activation: RAT LIVER S-9, AROCLOR 1254, Method: PREINCUBATION) was “active; positive” and the mutagenic call (Test System: AMES SALMONELLA TYPHIMURIUM, Strain/Indicator: TA100, Metabolic Activation: RAT, LIVER, S-9, AROCLOR 1254, Method: PREINCUBATION) was “active; positive”.
COc1cc(NS(C)(=O)=O)ccc1Nc1c2ccccc2nc2cc(N=[N+]=[N-])ccc12 was tested, and the mutagenic call [3] was “active; positive”.
In the case of COCC1CO1 (stereo not drawn), the mutagenic call (Test System: AMES SALMONELLA TYPHIMURIUM, Strain/Indicator: TA100, Metabolic Activation: HAMSTER, LIVER, S-9, AROCLOR 1254 (10%), Method: PREINCUBATION) is reported as “active; positive”, the mutagenic call [2] is reported as “active; positive” and the mutagenic call (Test System: AMES SALMONELLA TYPHIMURIUM, Strain/Indicator: TA100, Metabolic Activation: RAT, LIVER, S-9, AROCLOR 1254 (10%), Method: PREINCUBATION) is reported as “active; positive”. For the same compound, the mutagenic call (Test System: AMES SALMONELLA TYPHIMURIUM, Strain/Indicator: TA1535, Metabolic Activation: HAMSTER, LIVER, S-9, AROCLOR 1254 (10%), Method: PREINCUBATION) was “active; positive”, the mutagenic call (Test System: AMES SALMONELLA TYPHIMURIUM, Strain/Indicator: TA1535, Metabolic Activation: NONE, Method: PREINCUBATION) was “active; positive” and the mutagenic call (Test System: AMES SALMONELLA TYPHIMURIUM, Strain/Indicator: TA1535, Metabolic Activation: RAT, LIVER, S-9, AROCLOR 1254 (10%), Method: PREINCUBATION) was “active; positive”.
For CN(CCC#N)c1ccc(N=Nc2ccccc2)cc1, the mutagenic call [4] was “active; positive”.
For N#Cc1cc([N+](=O)[O-])ccc1N, the mutagenic call [5] was “active; positive”, the mutagenic call (Test System: AMES SALMONELLA TYPHIMURIUM, Strain/Indicator: TA98, Metabolic Activation: RAT, LIVER, S-9, PHENOBARBITAL AND BETA-NAPHTHOFLAVONE, Method: PREINCUBATION) was “active; positive” and the mutagenic call [2] was “active; positive”. For the same compound, the mutagenic call (Test System: AMES SALMONELLA TYPHIMURIUM, Strain/Indicator: TA100, Metabolic Activation: RAT, LIVER, S-9, PHENOBARBITAL AND BETA-NAPHTHOFLAVONE, Method: PREINCUBATION) was “active; positive”.
In the case of C[n+]1ccn(COCCC(C)(C)[N+](=O)[O-])c1/C=N/O, the mutagenic call (Test System: AMES SALMONELLA TYPHIMURIUM, Strain/Indicator: TA97, Metabolic Activation: NONE, Method: STANDARD PLATE) is reported as “inactive; negative”, the mutagenic call (Test System: AMES SALMONELLA TYPHIMURIUM, Strain/Indicator: TA97, Metabolic Activation: S-9, Method: STANDARD PLATE) is reported as “inactive; negative” and the mutagenic call (Test System: AMES SALMONELLA TYPHIMURIUM, Strain/Indicator: TA98, Metabolic Activation: NONE, Method: STANDARD PLATE) is reported as “inactive; negative”. For the same compound, the mutagenic call (Test System: AMES SALMONELLA TYPHIMURIUM, Strain/Indicator: TA98, Metabolic Activation: S-9, Method: STANDARD PLATE) was “inactive; negative”, the mutagenic call [1] was “inactive; negative” and the mutagenic call (Test System: AMES SALMONELLA TYPHIMURIUM, Strain/Indicator: TA100, Metabolic Activation: S-9, Method: STANDARD PLATE) was “inactive; negative”. The mutagenic call (Test System: AMES SALMONELLA TYPHIMURIUM, Strain/Indicator: TA104, Metabolic Activation: NONE, Method: STANDARD PLATE) was “inactive; negative”, the mutagenic call (Test System: AMES SALMONELLA TYPHIMURIUM, Strain/Indicator: TA104, Metabolic Activation: S-9, Method: STANDARD PLATE) was “inactive; negative” and the mutagenic call (Test System: AMES SALMONELLA TYPHIMURIUM, Strain/Indicator: TA1535, Metabolic Activation: NONE, Method: STANDARD PLATE) was “inactive; negative”. For the same compound, the mutagenic call (Test System: AMES SALMONELLA TYPHIMURIUM, Strain/Indicator: TA1535, Metabolic Activation: S-9, Method: STANDARD PLATE) was “inactive; negative”, the mutagenic call [3] was “inactive; negative” and the mutagenic call (Test System: AMES SALMONELLA TYPHIMURIUM, Strain/Indicator: TA1537, Metabolic Activation: S-9, Method: STANDARD PLATE) was “inactive; negative”. The mutagenic call (Test System: AMES SALMONELLA TYPHIMURIUM, Strain/Indicator: TA1538, Metabolic Activation: NONE, Method: STANDARD PLATE) was “inactive; negative” and the mutagenic call (Test System: AMES SALMONELLA TYPHIMURIUM, Strain/Indicator: TA1538, Metabolic Activation: S-9, Method: STANDARD PLATE) was “inactive; negative”.
For CC(=O)Nc1ccc2c(c1OC(=O)c1ccccc1)Cc1ccccc1-2, the mutagenic call (Test System: AMES SALMONELLA TYPHIMURIUM, Strain/Indicator: TA98, Metabolic Activation: RAT, LIVER, S-9, AROCLOR 1254, Method: STANDARD PLATE) was “inactive; negative”.
c1ccc2cc3c(cc2c1)-c1cccc2cccc-3c12 was tested, and the mutagenic call (Test System: AMES SALMONELLA TYPHIMURIUM, Strain/Indicator: TA98, Metabolic Activation: HAMSTER, LIVER, S-9, AROCLOR 1254 (30%), Method: PREINCUBATION) was “active; positive”, the mutagenic call [5] was “inactive; negative” and the mutagenic call (Test System: AMES SALMONELLA TYPHIMURIUM, Strain/Indicator: TA98, Metabolic Activation: RAT, LIVER, S-9, AROCLOR 1254 (30%), Method: PREINCUBATION) was “active; positive”. The mutagenic call (Test System: AMES SALMONELLA TYPHIMURIUM, Strain/Indicator: TA100, Metabolic Activation: HAMSTER, LIVER, S-9, AROCLOR 1254 (30%), Method: PREINCUBATION) was “active; positive”, the mutagenic call [2] was “inactive; negative” and the mutagenic call (Test System: AMES SALMONELLA TYPHIMURIUM, Strain/Indicator: TA100, Metabolic Activation: RAT, LIVER, S-9, AROCLOR 1254) was “active; positive”. For the same compound, the mutagenic call (Test System: AMES SALMONELLA TYPHIMURIUM, Strain/Indicator: TA100, Metabolic Activation: RAT, LIVER, S-9, AROCLOR 1254 (30%), Method: PREINCUBATION) was “active; positive” and the mutagenic call (Test System: AMES SALMONELLA TYPHIMURIUM, Strain/Indicator: TA100, Metabolic Activation: RAT, LIVER, S-9, AROCLOR 1254, Method: STANDARD PLATE) was “active; positive”.
COC(=O)c1oc(NOC(C)=O)c(-c2ccccc2)c1-c1ccccc1 was tested, and the mutagenic call [5] was “inactive; negative”, the mutagenic call [4] was “inactive; negative” and the mutagenic call [2] was “inactive; negative”. The mutagenic call (Test System: AMES SALMONELLA TYPHIMURIUM, Strain/Indicator: TA100, Metabolic Activation: RAT, LIVER, S-9, AROCLOR, Method: PREINCUBATION) was “inactive; negative”.
In the case of CC(=O)OC[C@H]1OC(OC(C)=O)[C@H](NC(=O)N(C)N=O)[C@@H](OC(C)=O)[C@@H]1OC(C)=O (stereo partly drawn), the mutagenic call (Test System: CHINESE HAMSTER V-79, Strain/Indicator: V-79/8-AZAGUANINE, Metabolic Activation: NONE, Method: STANDARD PLATE) is reported as “active; positive”.
O=C1CC(O)C(O)c2ccc3c4c(ccc3c21)CCC4 (stereo not drawn) was tested, and the mutagenic call (Test System: AMES SALMONELLA TYPHIMURIUM, Strain/Indicator: TA100, Metabolic Activation: RAT, LIVER, MICROSOMES, 15,16-DIHYDROCYCLOPENTA[A]PHENANTHREN-17-ONE, Method: STANDARD PLATE) was “inactive; negative”, the mutagenic call (Test System: AMES SALMONELLA TYPHIMURIUM, Strain/Indicator: TA100, Metabolic Activation: RAT, LIVER, MICROSOMES, AROCLOR 1254, Method: STANDARD PLATE) was “active; positive” and the mutagenic call (Test System: AMES SALMONELLA TYPHIMURIUM, Strain/Indicator: TA100, Metabolic Activation: RAT, LIVER, MICROSOMES, BENZO[A]PYRENE, Method: STANDARD PLATE) was “active; positive”. The mutagenic call (Test System: AMES SALMONELLA TYPHIMURIUM, Strain/Indicator: TA100, Metabolic Activation: RAT, LIVER, MICROSOMES, CLOFIBRATE, Method: STANDARD PLATE) was “inactive; negative”, the mutagenic call (Test System: AMES SALMONELLA TYPHIMURIUM, Strain/Indicator: TA100, Metabolic Activation: RAT, LIVER, MICROSOMES, DEXAMETHASONE, Method: STANDARD PLATE) was “inactive; negative” and the mutagenic call (Test System: AMES SALMONELLA TYPHIMURIUM, Strain/Indicator: TA100, Metabolic Activation: RAT, LIVER, MICROSOMES, ISONIAZID, Method: STANDARD PLATE) was “inactive; negative”. The mutagenic call (Test System: AMES SALMONELLA TYPHIMURIUM, Strain/Indicator: TA100, Metabolic Activation: RAT, LIVER, MICROSOMES, PHENOBARBITONE, Method: STANDARD PLATE) was “inactive; negative”.
